Test results published in ChEMBL document CHEMBL1275542, “Characterization of TolC efflux pump proteins from Pasteurella multocida” (2008).
Converted amounts (≈) assume the structure as drawn.

What was measured:
Assay type in all cases: functional
Pasteurella multocida [1] = assay: Antibacterial activity against Pasteurella multocida AL435 after 24 hrs by broth dilution method
Pasteurella multocida [2] = assay: Antibacterial activity against TolC deficient Pasteurella multocida pm0527 after 24 hrs by broth dilution method
Pasteurella multocida [3] = assay: Antibacterial activity against Pasteurella multocida pm0527 after 24 hrs by broth dilution method
Pasteurella multocida [4] = assay: Ratio of MIC for Pasteurella multocida AL435 to MIC for TolC deficient Pasteurella multocida pm0527
Pasteurella multocida [5] = assay: Antibacterial activity against TolC deficient Pasteurella multocida pm1980 after 24 hrs by broth dilution method
Pasteurella multocida [6] = assay: Antibacterial activity against Pasteurella multocida pm1980 after 24 hrs by broth dilution method
Pasteurella multocida [7] = assay: Ratio of MIC for Pasteurella multocida AL435 to MIC for TolC deficient Pasteurella multocida pm1980

Row | Compound | MIC (Pasteurella multocida [1]; AL435, 24 h) [µg/mL] | MIC (Pasteurella multocida [2]; pm0527, 24 h) [µg/mL] | MIC (Pasteurella multocida [3]; pm0527, 24 h) [µg/mL] | Ratio (Pasteurella multocida [4]) | MIC (Pasteurella multocida [5]; pm1980, 24 h) [µg/mL] | MIC (Pasteurella multocida [6]; pm1980, 24 h) [µg/mL] | Ratio (Pasteurella multocida [7]) | MIC (Pasteurella multocida [1]) [µg/mL] | MIC (Pasteurella multocida [2]) [µg/mL] | MIC (Pasteurella multocida [3]) [µg/mL] | MIC (Pasteurella multocida [5]) [µg/mL] | MIC (Pasteurella multocida [6]) [µg/mL]
1 | CCC[C@@H]1C[C@@H](C(=O)N[C@@H]([C@H]2O[C@H](SC)[C@H](O)[C@@H](O)[C@H]2O)[C@@H](C)O)N(C)C1 [LINCOMYCIN] | 100 (≈ 246 µM) | 25 (≈ 61.5 µM) | 25 (≈ 61.5 µM) | 4 | 100 (≈ 246 µM) | 50 (≈ 123 µM) | 1 | – | – | – | – | –
2 | SPIRAMYCIN | – | – | – | 2 | – | – | 1 | 25 | 12.5 | 25 | 25 | 25
3 | O=P1(N(CCCl)CCCl)NCCCO1 (centres undefined) [CYCLOPHOSPHAMIDE ANHYDROUS] | 4000 (≈ 15300 µM) | 4000 (≈ 15300 µM) | 2000 (≈ 7660 µM) | 1 | 2000 (≈ 7660 µM) | 2000 (≈ 7660 µM) | 2 | – | – | – | – | –
4 | CC[n+]1c(-c2ccccc2)c2cc(N)ccc2c2ccc(N)cc21.[Br-] [HOMIDIUM BROMIDE] | 20 | 5 | 10 | 4 | 10 | 10 | 2 | – | – | – | – | –
5 | CO[C@@H]1[C@@H](OC(N)=O)[C@@H](O)[C@H](Oc2ccc3c(O)c(NC(=O)c4ccc(O)c(CC=C(C)C)c4)c(=O)oc3c2C)OC1(C)C [NOVOBIOCIN] | 40 (≈ 65.3 µM) | 2.5 (≈ 4.08 µM) | 40 (≈ 65.3 µM) | 16 | 20 (≈ 32.6 µM) | 40 (≈ 65.3 µM) | 2 | – | – | – | – | –
6 | CN(C)c1ccc(C(=C2C=CC(=[N+](C)C)C=C2)c2ccc(N(C)C)cc2)cc1.[Cl-] [GENTIAN VIOLET] | 12.5 | 3.12 | 6.25 | 4 | 12.5 | 12.5 | 1 | – | – | – | – | –
7 | O[C@@H](CS)[C@@H](O)CS [DITHIOTHREITOL] | 4000 (≈ 25900 µM) | 2000 (≈ 13000 µM) | 2000 (≈ 13000 µM) | 2 | 2000 (≈ 13000 µM) | 4000 (≈ 25900 µM) | 2 | – | – | – | – | –
8 | COc1cc(Cc2cnc(N)nc2N)cc(OC)c1OC [TRIMETHOPRIM] | 8 (≈ 27.6 µM) | 0.25 (≈ 0.861 µM) | 0.5 (≈ 1.72 µM) | 32 | 2 (≈ 6.89 µM) | 1 (≈ 3.44 µM) | 4 | – | – | – | – | –
9 | CCCCc1ccc(C(=O)O)nc1 [FUSARIC ACID] | 100 (≈ 558 µM) | 50 (≈ 279 µM) | 50 (≈ 279 µM) | 2 | 50 (≈ 279 µM) | 100 (≈ 558 µM) | 2 | – | – | – | – | –
10 | C[C@H](CCC(=O)O)[C@H]1CC[C@H]2[C@@H]3CC[C@@H]4C[C@H](O)CC[C@]4(C)[C@H]3C[C@H](O)[C@]12C [DEOXYCHOLIC ACID] | 625 (≈ 1590 µM) | 625 (≈ 1590 µM) | 312 (≈ 796 µM) | 1 | 625 (≈ 1590 µM) | 625 (≈ 1590 µM) | 1 | – | – | – | – | –
11 | CCn1cc(C(=O)O)c(=O)c2ccc(C)nc21 [NALIDIXIC ACID] | 25 (≈ 108 µM) | 25 (≈ 108 µM) | 25 (≈ 108 µM) | 1 | 25 (≈ 108 µM) | 12.5 (≈ 53.8 µM) | 1 | – | – | – | – | –
12 | CO[C@H]1/C=C/O[C@@]2(C)Oc3c(C)c(O)c4c(O)c(c(/C=N/N5CCN(C)CC5)c(O)c4c3C2=O)NC(=O)/C(C)=C\C=C\[C@H](C)[C@H](O)[C@@H](C)[C@@H](O)[C@@H](C)[C@H](OC(C)=O)[C@@H]1C [RIFAMPIN] | 50 (≈ 60.8 µM) | 0.1 (≈ 0.122 µM) | 0.2 (≈ 0.243 µM) | 512 | 0.78 (≈ 0.948 µM) | 0.78 (≈ 0.948 µM) | 64 | – | – | – | – | –
13 | O=C(N[C@H](CO)[C@H](O)c1ccc([N+](=O)[O-])cc1)C(Cl)Cl [CHLORAMPHENICOL] | 1 (≈ 3.09 µM) | 0.5 (≈ 1.55 µM) | 1 (≈ 3.09 µM) | 2 | 1 (≈ 3.09 µM) | 1 (≈ 3.09 µM) | 1 | – | – | – | – | –
14 | CC(C)(O/N=C(\C(=O)N[C@@H]1C(=O)N2C(C(=O)[O-])=C(C[n+]3ccccc3)CS[C@H]12)c1csc(N)n1)C(=O)O [CEFTAZIDIME] | 250 (≈ 457 µM) | 15.6 (≈ 28.5 µM) | 7.8 (≈ 14.3 µM) | 16 | 31.2 (≈ 57.1 µM) | 31.2 (≈ 57.1 µM) | 8 | – | – | – | – | –
15 | Nc1ccc(S(=O)(=O)Nc2nccs2)cc1 [SULFATHIAZOLE] | 2500 (≈ 9790 µM) | 625 (≈ 2450 µM) | 1250 (≈ 4900 µM) | 4 | 2500 (≈ 9790 µM) | 2500 (≈ 9790 µM) | 1 | – | – | – | – | –
16 | CN(C)c1ccc2cc3ccc(N(C)C)cc3nc2c1 [ACRIDINE ORANGE] | 30 (≈ 113 µM) | 0.234 (≈ 0.882 µM) | 15 (≈ 56.5 µM) | 128 | 30 (≈ 113 µM) | 30 (≈ 113 µM) | 1 | – | – | – | – | –
17 | NEOMYCIN SULFATE | – | – | – | 1 | – | – | 0.125 | 125 | 125 | 125 | 1000 | 500
18 | GENTAMICIN | – | – | – | 4 | – | – | 0.5 | 20 | 5 | 20 | 40 | 40
19 | C[C@@H]1C[C@@H]([C@H](O)CC2CC(=O)NC(=O)C2)C(=O)[C@@H](C)C1 [CYCLOHEXIMIDE] | 500 (≈ 1780 µM) | 250 (≈ 889 µM) | 500 (≈ 1780 µM) | 2 | 500 (≈ 1780 µM) | 500 (≈ 1780 µM) | 1 | – | – | – | – | –
20 | CN[C@H](CC(C)C)C(=O)N[C@H]1C(=O)N[C@@H](CC(N)=O)C(=O)N[C@H]2C(=O)N[C@H]3C(=O)N[C@H](C(=O)N[C@H](C(=O)O)c4cc(O)cc(O)c4-c4cc3ccc4O)[C@H](O)c3ccc(c(Cl)c3)Oc3cc2cc(c3O[C@@H]2O[C@H](CO)[C@@H](O)[C@H](O)[C@H]2O[C@H]2C[C@](C)(N)[C@H](O)[C@H](C)O2)Oc2ccc(cc2Cl)[C@H]1O [VANCOMYCIN] | 1000 (≈ 690 µM) | 125 (≈ 86.3 µM) | 250 (≈ 173 µM) | 8 | 250 (≈ 173 µM) | 250 (≈ 173 µM) | 4 | – | – | – | – | –
21 | POLYMYXIN B | – | – | – | 4 | – | – | 1 | 12.5 | 3.12 | 6.25 | 12.5 | 6.25
22 | CC[C@H]1OC(=O)[C@H](C)[C@@H](O[C@H]2C[C@@](C)(OC)[C@@H](O)[C@H](C)O2)[C@H](C)[C@@H](O[C@@H]2O[C@H](C)C[C@H](N(C)C)[C@H]2O)[C@](C)(O)C[C@@H](C)C(=O)[C@H](C)[C@@H](O)[C@]1(C)O [ERYTHROMYCIN] | 3.8 (≈ 5.18 µM) | 0.47 (≈ 0.64 µM) | 1.88 (≈ 2.56 µM) | 8 | 1.88 (≈ 2.56 µM) | 1.88 (≈ 2.56 µM) | 2 | – | – | – | – | –
